Data: US9085605B2, “Chemical synthesis and anti-tumor and anti-metastatic effects of dual functional conjugate” (Shenzhen Salubris Pharmaceuticals Co., Ltd., priority 2010, dated 2015)
Entries after “also recorded” stand apart in the source; their conditions may differ. Like-named read-outs stand apart in the source and are kept apart here. Marks after values point to notes of the source that are not given here.

Key:
[1] = Toxicity test by single dose, intravenous; type: in vivo, ICR mice
[2] = system: Human lung cancer H460
Source text: Through cell culture in vitro, the tumor was inoculated on nude mice, the tumor grew and passaged for the experiment use. • Animals: BALB/c nude mice, ♀, 4˜5 weeks old, were obtained from the Experimental Lab, Chinese Academy of Medical Science, Certificate NO. […] Experiment Method:
The tumor-bearing mice with good tumor growth and good general physical condition were selected and sacrificed. Tumor was isolated in a sterile condition and cut into fragments (diameter for about 2-3 mm) by surgical knife. The fragments were then hypodermically inoculated in posterior axillary of nude mice by means of a trocar.
After the tumors grew naturally for eight days, the average volume of tumors reaches 130 mm^3. The length and width of tumor was measured using vernier calipers, and divided into groups by the tumor volume.
The mice were divided into five groups for observation, each groups had eight mice. […] Respective drug was administrated for each group from the grouping day.
The experiment was terminated 24 hours after the last administration.
During the experimentation, the tumors sizes (length and width) and body weights of mice were measured once every three days. The tumor volume (TV) and relative tumor volume (RTV) were calculated according to the method for references, and the tumor volume growth tendency chart was plotted.
At the end of the experiment, the mice were sacrificed. Tumors were removed and weighed, and the inhibition rate of the tumor growth by drugs was calculated. Statistical significance of the tumor weight, tumor volume and RTV level were evaluated by t-test.
[formula] • (C, average tumor weight of control group; T, average tumor weight of administrated group) • Tumor Volume (TV)=length×width^2/2. • Relative Tumor Volume (RTV) formula: Vt/Vo • (Vo is the volume of TV at the beginning of the grouping, and Vt is the volume of TV at measure time) • Anti-tumor activities were evaluated by Tumor Relative proliferation Rate T/C (%)
[formula] • Therapeutic effect evaluation standard: T/C (%)>40, was judged as invalid; • T/C (%)≦40, and through statistical evaluation P<0.05, was judged as valid.

[3] = system: 60 human tumor cell lines; test: NCI screening of antitumor activity in vitro in 60 human tumor cell lines; type: cell-based
Source text: The experimental results refer to FIGS. 1-12.

[4] = system: Human lung cancer A549; test: Xenograft tumor nude mice screening, A549; type: in vivo, BALB/c nu mice
Protocol: (§1) Certificate NO. SCXK (BeiJing) 2005-0013. • Cell lines: The tumor cell lines were passaged and cultured by our Lab, some of them was obtained from ATCC. • The tumor cell lines included: Human breast cancer MX-1 and MCF-7. • Human ovarian cancer A2780, and clear Human ovarian cell cancer ES-2, • Human lung cancer H1975 and A549. Experiment Method: • 1. […] The administration dose and treatment progress was determined based from the preliminary experiments, which had solid effects and the shortest treatment period—the dose of 30 mg/kg/day, and the administration duration time of every lot experiment was not more than 12 days.

[5] = system: Human breast cancer MCF-7; test: Xenograft tumor nude mice screening, MCF-7; type: in vivo, BALB/c nu mice
Protocol: as §1

[6] = system: Human breast cancer MX-1; test: Xenograft tumor nude mice screening, MX-1; type: in vivo, BALB/c nu mice; settings: 30 mg/kg i.p., 10~12 times
Protocol: as §1

[7] = system: lewis lung cancer; settings: 10 mg/kg i.p. once daily
Protocol: C57Bl/6 mice with lewis lung cancer were sacrificed and the tumor was removed. The tumor cell suspension (5×10^6 cell/mL) was prepared in a sterile condition. The suspension (0.2 mL/mice, 1×10^6 tumor cell) was inoculated subcutaneously into the axillary of 24 C57Bl/6 mice. […] From the 7th day after the implantation, the long diameter and short diameter of tumor was measured every 2 days. Tumor volume was calculated by the formula (½)×long diameter×short diameter^2. Drug was withdrawn on the eighteenth day after the implantation. All mice were then sacrificed and the body weight was measured. The tumors, spleen and lung were removed and weighed. The lungs were fixed in Bouin's fixative for 24 h. The numbers of lung metastasis nodule were counted, and the statistics was evaluated by Mann-Whitney U test.

[8] = system: lewis lung cancer; test: Anti-artificial metastasis on Lewis lung cancer in mice (intravenous inoculation); type: in vivo, C57Bl/6 mice
Protocol: The suspension (0.2 mL/mice, 3×10^5 tumor cell) was inoculated intravenously into the tails of fifty C57Bl/6 mice. […] The tumors, spleen and lung were removed and weighed.

[9] = system: clear Human ovarian cell cancer ES-2; test: Xenograft tumor nude mice screening, ES-2; type: in vivo, BALB/c nu mice; settings: 30 mg/kg i.p., 10~12 times
Protocol: as §1

[10] = system: Human lung cancer H1975; test: Xenograft tumor nude mice screening, H1975; type: in vivo, BALB/c nu mice; settings: 30 mg/kg × 12, i.p.
Protocol: as §1

[11] = system: Human ovarian cancer A2780; test: Xenograft tumor nude mice screening, A2780; type: in vivo, BALB/c nu mice; settings: 30 mg/kg i.p., 10~12 times
Protocol: as §1

[12] = system: Mice breast cancer cell line (4T1, ATCC CRL2539)
Protocol: Mice breast cancer cell line (4T1, ATCC CRL2539) was a generous gift from Prof. Wei Liang of the Institute of biophysics, Chinese Academy of Sciences. The cell was cultured in the 1640 medium (Gibco) containing 10% fetal bovine serum (FBS), 1% glutamine and 1% penicillin.
4T1 cells in logarithmic phase were collected and the concentration was adjusted to 2×10^6/mL. 4T1 tumors were introduced in female BALB/c mice by injecting subcutaneously into the fourth fat pad area of the right abdominal mammary gland with the dose of 2×10^5/0.1 mL. […] From the 9th day after implantation, tumor growth was measured every 2 days with vernier calipers for determining the long diameter and short diameter of tumor. Tumor volume was calculated by the formula (½)×long diameter×short diameter^2. Drug was withdrawn on the twenty-eight days after the implantation, all mice were then sacrificed and the body weight were measured. The tumors, spleen and lung were removed and weighed. The lungs were fixed in Bouin's fixative for 24 h. The numbers of lung metastasis nodule were counted, the statistics was evaluated using Mann-Whitney U test.

[13] = 112.5 mg·kg^−1 i.v. single dose

Structure (SMILES): CC(=O)O[C@H]1C(=O)[C@@]2(C)[C@H]([C@H](OC(=O)c3ccccc3)[C@]3(O)C[C@H](OC(=O)[C@H](OC(=O)CCC(=O)NCCCCC(NC(=O)CC[C@H](NC(=O)C(C)NC(=O)/C=C/c4ccc(Cl)cc4)C(N)=O)C(N)=O)[C@@H](NC(=O)c4ccccc4)c4ccccc4)C(C)=C1C3(C)C)[C@]1(OC(C)=O)CO[C@@H]1C[C@@H]2O (some centres unmarked) [MTC-220]
- Anatomical examination of organs [1, 13]: no sign of abnormal changes
- Body weight compared with control group [1, 13]: not significantly different
- Symptoms after injection [1, 13]: voluntary activities of mice in administered group were reduced, some mice showed jumping symptoms
- Time to recovery from symptoms [1, 13]: about 10 min
- Death ([1]; 112.5 mg·kg^−1 i.v. single dose, 14 days observation): no death occured
- MTD at 14 days ([1]; mouse, in vivo, 112.5 mg·kg^−1, single intravenous injection, ICR mice): > 112 mg/kg
- Body weight Beginning ([2]; 5 mg/kg × 25, i.p.): 18.0 ± 0.95 g
- Body weight End ([2]; 5 mg/kg × 25, i.p.): 21.9 ± 1.10 g
- RTV ([2]; 5 mg/kg × 25, i.p.): 32.0 ± 8.27
- T/C ([2]; 5 mg/kg × 25, i.p.): 96.2%
- TGI ([2]; 5 mg/kg × 25, i.p.): 2.15%
- Tumor volume Beginning ([2]; 5 mg/kg × 25, i.p.): 125 ± 36.8 mm^3
- Tumor volume End ([2]; 5 mg/kg × 25, i.p.): 3737 ± 591.0 mm^3
- Tumor weight ([2]; 5 mg/kg × 25, i.p.): 2.91 ± 0.695 g
- Growth rate of tumor volume compared to negative control ([2]; 5 mg/kg, 25 days successive administration): not significantly different
- Body weight Beginning ([2]; 10 mg/kg × 25, i.p.): 18.2 ± 0.70 g
- Body weight End ([2]; 10 mg/kg × 25, i.p.): 21.4 ± 1.15 g
- RTV ([2]; 10 mg/kg × 25, i.p.): 27.7 ± 6.81
- T/C ([2]; 10 mg/kg × 25, i.p.): 83.1%
- TGI ([2]; 10 mg/kg × 25, i.p.): 17.3%
- Tumor volume Beginning ([2]; 10 mg/kg × 25, i.p.): 125 ± 43.0 mm^3
- Tumor volume End ([2]; 10 mg/kg × 25, i.p.): 3274 ± 797.0 mm^3
- Tumor weight ([2]; 10 mg/kg × 25, i.p.): 2.46 ± 0.624 g
- Tumor volume inhibition ([2]; 10 mg/kg, end of the experiment): 18.8%
- Body weight Beginning ([2]; 20 mg/kg × 25, i.p.): 17.8 ± 1.10 g
- Body weight End ([2]; 20 mg/kg × 25, i.p.): 18.9 ± 2.49 g
- RTV ([2]; 20 mg/kg × 25, i.p.): 16.7 ± 9.93
- T/C ([2]; 20 mg/kg × 25, i.p.): 50.1%
- TGI ([2]; 20 mg/kg × 25, i.p.): 52.9%
- Tumor volume Beginning ([2]; 20 mg/kg × 25, i.p.): 123 ± 44.6 mm^3
- Tumor volume End ([2]; 20 mg/kg × 25, i.p.): 1963 ± 641.9 mm^3
- Tumor weight ([2]; 20 mg/kg × 25, i.p.): 1.40 ± 0.466 g
- 50% growth inhibition (GI50) activity [3]: in the same magnitude range as paclitaxel
- Body weight Beginning ([4]; 30 mg/kg × 12, i.p.): 25.2 ± 1.31 g
- Body weight End ([4]; 30 mg/kg × 12, i.p.): 26.3 ± 1.51 g
- RTV ([4]; 30 mg/kg × 12, i.p.): 0.67 ± 0.411
- Tumor volume Beginning ([4]; 30 mg/kg × 12, i.p.): 95 ± 27.7 mm^3
- Tumor volume End ([4]; 30 mg/kg × 12, i.p.): 74 ± 55.2 mm^3
- Tumor weight ([4]; 30 mg/kg × 12, i.p.): 0.062 ± 0.041 g
- Death ([4]; 30 mg/kg/day, after drug withdrawal): one mouse died one week after drug withdrawal
- Tumor observation (in words) ([4]; 30 mg/kg/day, during the administration): became smaller and smaller, but didn't disappear
- Body weight Beginning ([5]; 30 mg/kg × 12, i.p.): 20.8 ± 1.14 g
- Body weight End ([5]; 30 mg/kg × 12, i.p.): 23.3 ± 1.22 g
- RTV ([5]; 30 mg/kg × 12, i.p.): 0**
- T/C ([5]; 30 mg/kg × 12, i.p.): 0%
- TGI ([5]; 30 mg/kg × 12, i.p.): 100%
- Tumor volume Beginning ([5]; 30 mg/kg × 12, i.p.): 142 ± 73.5 mm^3
- Tumor volume End ([5]; 30 mg/kg × 12, i.p.): 0 mm^3
- Tumor weight ([5]; 30 mg/kg × 12, i.p.): 0** g
- Tumor observation (in words) ([5]; 30 mg/kg/day, 10 administrations, then withdrawal): disappeared one after another; also recorded: disappeared after successive administration for 10 times
- Inhibition of tumor growth (in words) [6]: weak
- Lung weight [7]: 152 ± 37 mg
- Toxic and side effect [7]: no toxic and side effect
- Body weight ([8]; 2.5 mg/kg i.p.): 19.0 ± 1.9 g
- Lung weight ([8]; 2.5 mg/kg i.p.): 334 ± 217 mg
- Body weight ([8]; 5 mg/kg i.p.): 18.4 ± 2.3 g
- Lung weight ([8]; 5 mg/kg i.p.): 492 ± 353 mg
- Lung weight ([8]; 10 mg/kg i.p.): 393 ± 326 mg
- Lung metastasis nodule number compared to vehicle control (in words) ([8]; 2.5, 5, 10 mg/kg, dose dependent): significantly decreased
- Inhibition of tumor growth (in words) [9]: at certain degree, but didn't attain the valid standard
- Body weight Beginning [10]: 24.1 ± 1.20 g
- Body weight End [10]: 26.6 ± 0.76 g
- RTV [10]: 0.66 ± 0.464
- Tumor volume Beginning [10]: 135 ± 50.6 mm^3
- Tumor volume End [10]: 127 ± 106.1 mm^3
- Tumor weight [10]: 0.13 ± 0.103 g
- Inhibition of tumor growth (in words) [11]: at certain degree, but didn't attain the valid standard
- Lung weight ([12]; 2.5 mg/kg i.p. once daily): 153 ± 18 mg
- Lung weight ([12]; 5.0 mg/kg i.p. once daily): 160 ± 15 mg
- Toxic and side effects ([12]; 2.5, 5, 10 mg/kg i.p. once daily): no toxic and side effects
- Lung metastasis nodule numbers compared to vehicle control (in words) ([12]; 2.5, 5, 10 mg/kg, p<0.01, dose dependent): significantly decreased
